Data on one compound can be found in US20090264387A1, “ESTRA-1,3,5(10)-TRIENE DERIVATIVES FOR CONTRACEPTION” (GRUNENTHAL GMBH, priority 2008, published 2009).

In this experiment the target is T1, recombinant human progestin receptor (Homo sapiens, UniProt P06401).
T1 sequence (P06401 1-933): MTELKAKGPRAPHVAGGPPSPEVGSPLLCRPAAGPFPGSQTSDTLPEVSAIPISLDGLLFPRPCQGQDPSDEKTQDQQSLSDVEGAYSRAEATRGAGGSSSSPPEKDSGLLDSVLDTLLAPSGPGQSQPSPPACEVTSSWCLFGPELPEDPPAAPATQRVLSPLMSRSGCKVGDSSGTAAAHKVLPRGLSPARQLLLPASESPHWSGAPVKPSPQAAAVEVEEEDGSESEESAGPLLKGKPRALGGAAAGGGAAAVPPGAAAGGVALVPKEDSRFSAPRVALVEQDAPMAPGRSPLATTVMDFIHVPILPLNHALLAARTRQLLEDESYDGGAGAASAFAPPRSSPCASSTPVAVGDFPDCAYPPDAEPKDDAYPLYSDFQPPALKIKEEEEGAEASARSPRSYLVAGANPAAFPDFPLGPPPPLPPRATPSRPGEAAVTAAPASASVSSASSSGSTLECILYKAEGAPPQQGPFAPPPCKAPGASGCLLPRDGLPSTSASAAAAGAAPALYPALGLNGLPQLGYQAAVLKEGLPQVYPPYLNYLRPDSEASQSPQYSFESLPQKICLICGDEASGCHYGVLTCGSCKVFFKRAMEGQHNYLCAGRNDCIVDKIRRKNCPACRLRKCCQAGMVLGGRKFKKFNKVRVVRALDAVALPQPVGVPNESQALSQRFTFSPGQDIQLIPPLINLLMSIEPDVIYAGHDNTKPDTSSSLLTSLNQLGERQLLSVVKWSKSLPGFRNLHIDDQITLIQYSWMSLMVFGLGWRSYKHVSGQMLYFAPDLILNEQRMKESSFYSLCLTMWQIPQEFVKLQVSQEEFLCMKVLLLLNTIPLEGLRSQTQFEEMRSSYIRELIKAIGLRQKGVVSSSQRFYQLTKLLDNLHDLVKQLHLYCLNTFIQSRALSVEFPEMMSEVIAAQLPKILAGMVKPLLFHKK
Kind of experiment: Relative binding affinity to recombinant human progestin receptor. An excerpt: Methods of determining affinity to the aforementioned receptors are known to the person skilled in the art. In this context, reference can be made, for example, to EP-A 808 845; Lacroix et al., Bioorganic & Medicinal Chemistry 1999 (7) 2329-2341; and D. Philibert et al., Gynecol Endocrinol 1999, 13, 316-26.
The relative binding affinities of (2S,17S)-17-(2-hydroxypropanoyl)-3-hydroxy-17-methyl-estra-1,3,5(10),9(11)-tetraene [compound of the general formula (IV)] to the recombinant human progestin receptor, mineral corticoid receptor, androgen receptor, glucocorticoid receptor and oestrogen receptor were determined experimentally (cf. D. Philibert et al., Gynecol Endocrinol 1999, 13, 316-26).

Turning to `C[C@H](O)C(=O)[C@@]1(C)CC[C@H]2[C@@H]3CCc4cc(O)ccc4C3=CC[C@@]21C` [(2S,17S)-17-(2-hydroxypropanoyl)-3-hydroxy-17-methylestra-1,3,5(10),9(11)-tetraene], the “affinity to the progestin receptor (relative binding affinity)” value (recombinant human receptor, progesterone reference standard) was “clear affinity”. Also, the “selectivity for the progestin receptor” value (versus other steroid receptors (mineral corticoid, androgen, glucocorticoid, oestrogen), quotient of relative binding affinities) is “high selectivity”.
